In patent publication US20220370440A1 (Lead Discovery Center GmbH, priority 2018, published 2022):

Assays:
[1] = tested on: A431; experiment: A431 CellTiter-Glo; assay type: cell-based; conditions: Homo sapiens, A-431; 72 h compound incubation; read-out: A431 CTG IC50
Experimental: 2. Measurement of Cellular Activity
The CellTiter-Glo Luminescent Cell Viability Assay (Promega) is a homogeneous method of determining the number of viable cells in culture. It is based on quantification of ATP, indicating the presence of metabolically active cells. Cells are seeded on day 1 at cell numbers that assure assay linearity and optimal signal intensity. After incubation for 24 h in humidified chambers at 37° C. and 5% CO2, compounds in DMSO are added at different concentrations. Cells are further incubated for 72 h at 37° C. and 5% CO2. Cells treated with the compound vehicle DMSO are used as positive controls and cells treated with 10 μM Staurosporine serve as negative controls. At day 5 the CellTiter Glo Reagent is prepared according to the instructions of the kit (Promega Inc.): Reagent is mixed 1:1 with cell culture medium. Thereon, mixture and assay plates are equilibrated at room temperature for 20 min. Equal volumes of the reagent-medium-mixture is added to the volume of culture medium present in each well. The plates are mixed at ˜200 rpm for 2 minutes on an orbital shaker. The microplates are then incubated at room temperature for 10 minutes for stabilization of the luminescent signal. Following incubation the luminescence is recorded on a Victor microplate reader (Perkin Elmer) using a 200 ms integration time. The data is then analyzed with Excel using the XLFIT Plugin (dose response Fit 205) for IC50-determination. As quality control the Z′-factor is calculated from 16 positive and negative control values. Only assay results showing a Z′-factor ≥0.5 are used for further analysis.
(§1) Inhibition is indicated as […] [nM] (“−”=not measured). Compounds having an activity designated as “A” provided an IC50≤100 nM; compounds having an activity designated as “B” provided an 100 nM<IC50≤500 nM; compounds having an activity designated as “C” provided an 500 nM<IC50≤1000 nM; compounds having an activity designated as “D” provided an 1000 nM<IC50≤100000 nM; and compounds having an activity designated as “E” provided an IC50>10000 nM.

[2] = tested on: H1975; experiment: H1975 CellTiter-Glo; assay type: cell-based; conditions: Homo sapiens, NCI-H1975; 72 h compound incubation; read-out: H1975 CTG IC50
How it was run: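 72 h compound exposure after 24 h attachment, 37° C./5% CO2; CellTiter-Glo ATP luminescence read-out; IC50 by dose-response fit; DMSO vehicle and 10 μM Staurosporine as controls; plates accepted only if Z′ ≥0.5.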

[3] = biological target: Her2 Exon 20 INSYVMA Ba/F3 (Homo sapiens, UniProt P04626, DUP772-775, cells depend on it); experiment: Her2 Exon 20 INSYVMA Ba/F3 CellTiter-Glo; assay type: cell-based; conditions: CellTiter-Glo, 72 h, read-out: Her2 Exon 20 INSYVMA Ba/F3 CTG IC50
Chain of Her2 Exon 20 INSYVMA Ba/F3 (P04626 with tags, fused parts or gaps DUP772-775): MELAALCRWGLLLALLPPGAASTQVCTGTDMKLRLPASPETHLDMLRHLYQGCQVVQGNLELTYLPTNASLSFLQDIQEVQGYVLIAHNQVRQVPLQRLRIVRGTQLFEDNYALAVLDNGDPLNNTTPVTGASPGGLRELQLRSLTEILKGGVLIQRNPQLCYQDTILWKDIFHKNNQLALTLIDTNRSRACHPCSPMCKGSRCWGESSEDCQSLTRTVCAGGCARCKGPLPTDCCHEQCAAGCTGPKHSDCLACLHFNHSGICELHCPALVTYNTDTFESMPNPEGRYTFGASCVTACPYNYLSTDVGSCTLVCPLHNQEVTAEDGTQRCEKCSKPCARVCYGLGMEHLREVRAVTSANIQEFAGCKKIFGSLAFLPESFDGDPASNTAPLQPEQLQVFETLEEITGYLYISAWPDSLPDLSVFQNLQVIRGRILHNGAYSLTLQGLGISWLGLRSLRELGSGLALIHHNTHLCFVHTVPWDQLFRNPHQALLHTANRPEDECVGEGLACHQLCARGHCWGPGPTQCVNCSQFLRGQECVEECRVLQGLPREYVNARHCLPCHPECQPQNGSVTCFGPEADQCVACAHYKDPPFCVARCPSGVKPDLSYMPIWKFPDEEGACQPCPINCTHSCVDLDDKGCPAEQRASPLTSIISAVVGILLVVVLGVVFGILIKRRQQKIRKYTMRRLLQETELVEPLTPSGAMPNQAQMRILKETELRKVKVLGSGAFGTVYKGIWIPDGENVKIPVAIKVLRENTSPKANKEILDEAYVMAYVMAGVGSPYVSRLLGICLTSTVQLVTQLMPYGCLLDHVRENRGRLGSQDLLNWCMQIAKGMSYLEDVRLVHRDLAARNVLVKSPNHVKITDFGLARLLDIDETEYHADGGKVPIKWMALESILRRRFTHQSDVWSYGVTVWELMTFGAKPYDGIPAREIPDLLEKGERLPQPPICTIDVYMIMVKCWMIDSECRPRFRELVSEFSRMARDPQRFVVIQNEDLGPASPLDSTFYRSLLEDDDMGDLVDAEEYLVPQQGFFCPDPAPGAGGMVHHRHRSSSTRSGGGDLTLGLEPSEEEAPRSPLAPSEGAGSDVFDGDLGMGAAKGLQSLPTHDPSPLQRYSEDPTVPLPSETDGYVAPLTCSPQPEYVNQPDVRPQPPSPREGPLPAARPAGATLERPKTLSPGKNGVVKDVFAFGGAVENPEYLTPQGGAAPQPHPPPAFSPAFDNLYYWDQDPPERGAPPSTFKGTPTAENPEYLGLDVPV
How it was run: (§2)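 IC50 values, binned A (≤100 nM) through E (>10000 nM), come from luminescent ATP quantitation of viable mutant-driven Ba/F3 cells. Compound exposure lasted 72 h, starting 24 h post-seeding; DMSO and 10 μM staurosporine served as controls, Z′ ≥0.5 required.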

[4] = biological target: T1, HER2 INS YVMA (Homo sapiens, UniProt P04626, INS775YVMA); experiment: Lance Kinase Activity Assay, HER2 INS YVMA (Her2 Exon 20 INSYVMA Lance); assay type: biochemical; conditions: biochemical Lance assay
T1 construct: purchased DPF
How it was run: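 IC50 was fitted to sigmoidal curves of TR-FRET signal (665 and 615 nm emission after 340 nm excitation) from an Eu anti-phospho antibody binding the phosphorylated ULight peptide. The ATP-started reaction ran 1 h at RT and was then quenched with 10 mM EDTA plus antibody for a further 1 h. Compounds were tested as 8-point, 3-fold dilutions.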

[5] = biological target: EGFR wt (Homo sapiens, UniProt P00533); experiment: EGFR wt Lance assay; assay type: biochemical
Chain of EGFR wt (P00533 25-1210): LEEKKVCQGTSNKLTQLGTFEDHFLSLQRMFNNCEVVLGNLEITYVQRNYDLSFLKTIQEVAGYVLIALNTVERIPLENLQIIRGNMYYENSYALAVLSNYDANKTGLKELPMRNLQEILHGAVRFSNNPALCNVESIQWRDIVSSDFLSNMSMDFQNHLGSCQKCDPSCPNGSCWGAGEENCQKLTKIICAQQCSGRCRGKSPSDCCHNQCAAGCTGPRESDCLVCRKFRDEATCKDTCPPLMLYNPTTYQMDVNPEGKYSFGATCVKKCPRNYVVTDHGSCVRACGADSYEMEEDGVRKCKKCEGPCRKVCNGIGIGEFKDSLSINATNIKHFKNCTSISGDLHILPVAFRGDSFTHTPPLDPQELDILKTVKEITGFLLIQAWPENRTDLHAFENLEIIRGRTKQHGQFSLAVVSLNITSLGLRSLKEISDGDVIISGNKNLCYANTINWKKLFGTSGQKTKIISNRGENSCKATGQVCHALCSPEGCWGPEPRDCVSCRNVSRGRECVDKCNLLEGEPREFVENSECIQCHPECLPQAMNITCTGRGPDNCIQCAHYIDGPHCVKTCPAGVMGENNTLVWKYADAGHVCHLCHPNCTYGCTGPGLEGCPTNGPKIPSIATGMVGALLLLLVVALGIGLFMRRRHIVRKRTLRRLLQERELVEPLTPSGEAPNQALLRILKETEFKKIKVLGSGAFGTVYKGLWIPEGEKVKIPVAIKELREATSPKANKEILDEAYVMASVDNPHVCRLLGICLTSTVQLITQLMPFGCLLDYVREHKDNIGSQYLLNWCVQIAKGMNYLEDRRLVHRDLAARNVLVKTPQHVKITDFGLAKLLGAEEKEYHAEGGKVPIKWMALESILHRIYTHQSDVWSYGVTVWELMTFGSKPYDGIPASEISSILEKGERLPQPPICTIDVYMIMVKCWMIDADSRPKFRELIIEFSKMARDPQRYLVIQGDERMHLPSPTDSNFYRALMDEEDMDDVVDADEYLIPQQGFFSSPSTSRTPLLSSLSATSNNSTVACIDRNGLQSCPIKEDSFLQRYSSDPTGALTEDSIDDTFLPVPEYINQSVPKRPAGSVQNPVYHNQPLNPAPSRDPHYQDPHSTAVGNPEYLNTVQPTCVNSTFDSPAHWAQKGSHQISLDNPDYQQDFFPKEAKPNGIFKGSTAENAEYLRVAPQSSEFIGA
Experimental: as §1

[6] = biological target: EGFR T790ML858R (Homo sapiens, UniProt P00533, L858R/T790M); experiment: EGFR T790ML858R Lance assay; assay type: biochemical
Chain of EGFR T790ML858R (P00533 25-1210 T790M/L858R): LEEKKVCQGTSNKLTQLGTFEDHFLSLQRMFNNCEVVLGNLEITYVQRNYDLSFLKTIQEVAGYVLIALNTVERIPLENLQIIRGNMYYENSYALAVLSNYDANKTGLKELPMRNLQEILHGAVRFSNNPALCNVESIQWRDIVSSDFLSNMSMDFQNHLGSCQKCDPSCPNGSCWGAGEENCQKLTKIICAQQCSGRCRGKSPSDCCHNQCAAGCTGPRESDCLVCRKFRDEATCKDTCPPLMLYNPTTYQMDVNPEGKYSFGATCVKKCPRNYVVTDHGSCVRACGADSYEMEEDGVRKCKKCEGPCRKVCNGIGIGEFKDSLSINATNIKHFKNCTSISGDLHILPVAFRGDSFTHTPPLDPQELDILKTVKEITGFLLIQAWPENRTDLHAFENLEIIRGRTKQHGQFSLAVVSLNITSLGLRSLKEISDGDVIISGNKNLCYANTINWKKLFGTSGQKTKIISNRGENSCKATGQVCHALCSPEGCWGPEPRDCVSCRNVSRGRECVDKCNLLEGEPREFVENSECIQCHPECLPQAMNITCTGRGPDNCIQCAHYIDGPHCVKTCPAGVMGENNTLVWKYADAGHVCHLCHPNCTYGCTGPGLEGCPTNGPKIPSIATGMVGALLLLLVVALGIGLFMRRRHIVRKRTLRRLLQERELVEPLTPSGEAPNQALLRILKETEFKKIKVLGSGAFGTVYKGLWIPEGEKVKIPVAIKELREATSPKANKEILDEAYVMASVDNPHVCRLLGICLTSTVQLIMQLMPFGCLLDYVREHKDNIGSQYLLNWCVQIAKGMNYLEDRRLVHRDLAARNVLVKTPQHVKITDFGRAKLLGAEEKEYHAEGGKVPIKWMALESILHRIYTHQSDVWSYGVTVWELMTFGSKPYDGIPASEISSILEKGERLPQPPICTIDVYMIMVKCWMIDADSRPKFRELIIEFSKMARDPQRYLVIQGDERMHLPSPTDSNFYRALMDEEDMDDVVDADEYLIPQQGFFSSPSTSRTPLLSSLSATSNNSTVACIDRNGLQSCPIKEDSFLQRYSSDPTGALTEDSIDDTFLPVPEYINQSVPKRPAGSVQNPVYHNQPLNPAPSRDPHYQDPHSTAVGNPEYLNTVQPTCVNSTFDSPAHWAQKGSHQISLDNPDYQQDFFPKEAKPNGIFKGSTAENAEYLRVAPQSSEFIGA
Experimental: as §1

[7] = biological target: EGFR Exon 20 INSNPH Ba/F3 (Homo sapiens, UniProt P00533, DUP771-773, cells depend on it); experiment: EGFR Exon 20 INSNPH Ba/F3 CellTiter-Glo; assay type: cell-based; conditions: CellTiter-Glo, 72 h, read-out: EGFR Exon 20 INSNPH Ba/F3 CTG IC50
Chain of EGFR Exon 20 INSNPH Ba/F3 (P00533 with tags, fused parts or gaps DUP771-773): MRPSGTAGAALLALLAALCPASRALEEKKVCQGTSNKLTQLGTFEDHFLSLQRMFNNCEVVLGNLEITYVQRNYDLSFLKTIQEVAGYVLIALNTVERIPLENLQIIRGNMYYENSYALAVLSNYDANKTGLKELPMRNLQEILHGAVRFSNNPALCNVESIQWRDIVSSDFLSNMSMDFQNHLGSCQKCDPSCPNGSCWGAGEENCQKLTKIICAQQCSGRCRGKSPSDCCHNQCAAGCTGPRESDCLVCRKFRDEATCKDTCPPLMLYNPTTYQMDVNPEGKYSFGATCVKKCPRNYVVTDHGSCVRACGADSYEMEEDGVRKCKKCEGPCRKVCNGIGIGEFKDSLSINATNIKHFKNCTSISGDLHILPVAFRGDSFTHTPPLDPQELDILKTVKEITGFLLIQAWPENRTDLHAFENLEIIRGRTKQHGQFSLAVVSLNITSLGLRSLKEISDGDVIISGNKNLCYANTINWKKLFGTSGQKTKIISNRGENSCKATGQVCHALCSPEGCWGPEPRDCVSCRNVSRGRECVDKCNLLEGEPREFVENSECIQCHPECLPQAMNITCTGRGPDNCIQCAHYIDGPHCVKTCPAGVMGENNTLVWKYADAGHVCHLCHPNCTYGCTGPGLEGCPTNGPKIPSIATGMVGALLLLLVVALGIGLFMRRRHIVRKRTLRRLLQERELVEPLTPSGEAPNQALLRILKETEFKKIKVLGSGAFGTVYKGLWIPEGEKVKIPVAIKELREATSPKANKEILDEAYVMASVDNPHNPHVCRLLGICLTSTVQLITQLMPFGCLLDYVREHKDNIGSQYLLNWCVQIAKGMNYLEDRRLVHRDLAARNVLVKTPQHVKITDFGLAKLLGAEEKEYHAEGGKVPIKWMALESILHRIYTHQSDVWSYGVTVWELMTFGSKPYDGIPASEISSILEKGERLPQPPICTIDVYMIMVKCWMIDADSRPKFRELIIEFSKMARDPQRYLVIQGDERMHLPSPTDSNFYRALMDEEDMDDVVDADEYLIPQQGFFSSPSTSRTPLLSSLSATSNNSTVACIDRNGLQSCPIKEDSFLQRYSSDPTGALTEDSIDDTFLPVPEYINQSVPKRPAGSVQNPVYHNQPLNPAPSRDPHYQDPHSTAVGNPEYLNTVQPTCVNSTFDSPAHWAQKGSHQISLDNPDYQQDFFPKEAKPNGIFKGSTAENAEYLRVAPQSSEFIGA
How it was run: as §2

| Structure (SMILES) | IC50 [1] [nM] | IC50 [2] [nM] | GI50 [3] [nM] | IC50 [4] [nM] | IC50 [5] [nM] | IC50 [6] [nM] | GI50 [7] [nM] |
| --- | --- | --- | --- | --- | --- | --- | --- |
| C=CC(=O)Nc1cc(-c2c(-c3ccnc(N4CCN(C)CC4)c3)[nH]c3ncc(C(=O)OC(C)C)cc23)ccc1C [Example 156, isoproyl 3-(3-acrylamido-4-methylphenyl)-2-(2-(4-methylpiperazin-1-yl)pyridin-4-yl)-1H-pyrrolo[2,3-b]pyridine-5-carboxylate 2,2,2-trifluoroacetate] | 1000 to 100000 | 500 to 1000 | 100 to 500 | ≤ 100 | ≤ 100 | ≤ 100 | 100 to 500 |
| C=CC(=O)Nc1cc(-c2c(-c3ccc(N(C)CCN(C)C)cc3)[nH]c3ncc(C(=O)OC(C)C)c(C)c23)ccc1C [Example 204, isopropyl 3-(3-acrylamido-4-methylphenyl)-2-(4-((2-(dimethylamino)ethyl)(methyl)amino)phenyl)-4-methyl-1H-pyrrolo[2,3-b]pyridine-5-carboxylate] | 1000 to 100000 | 100 to 500 | ≤ 100 | ≤ 100 | ≤ 100 | ≤ 100 | ≤ 100 |
| C=CC(=O)Nc1cc(-c2c(-c3cccc(C(=O)NCCCN4CCCC4)c3)[nH]c3nccc(Cl)c23)ccc1C [Example 47, 3-(3-(3-acrylamido-4-methylphenyl)-4-chloro-1H-pyrrolo[2,3-b]pyridin-2-yl)-N-(3-(pyrrolidin-1-yl)propyl)benzamide] | 500 to 1000 | ≤ 100 | 1000 to 10000 | ≤ 100 | ≤ 100 | ≤ 100 | 1000 to 10000 |
| Cc1ccc(-c2c(-c3ccc(N4CCN(C)CC4)cc3)[nH]c3nccc(Cl)c23)cc1NC(=O)/C=C/CN(C)C [Example 143, (E)-N-(5-(4-chloro-2-(4-(4-methylpiperazin-1-yl)phenyl)-1H-pyrrolo[2,3-b]pyridin-3-yl)-2-methylphenyl)-4-(dimethylamino)but-2-enamide 2,2,2-trifluoroacetate] | 1000 to 100000 | 100 to 500 | 100 to 500 | ≤ 100 | ≤ 100 | ≤ 100 | 100 to 500 |
| C=CC(=O)Nc1cc(-c2c(-c3ccc(N4CCN(C)CC4)cc3)[nH]c3ncc(C(=O)NCc4nc5ccccc5[nH]4)cc23)ccc1C [Example 125, N-((1H-benzo[d]imidazol-2-yl)methyl)-3-(3-acrylamido-4-methylphenyl)-2-(4-(4-methylpiperazin-1-yl)phenyl)-1H-pyrrolo[2,3-b]pyridine-5-carboxamide] | 1000 to 100000 | 100 to 500 | 1000 to 10000 | 1000 to 10000 | ≤ 100 | 100 to 500 | 1000 to 10000 |
| C=CC(=O)Nc1cc(-c2c(-c3ccc(N4CCN(C)CC4)cc3)[nH]c3ncc(CC(=O)OC(C)C)cc23)ccc1C [Example 190, isopropyl 2-(3-(3-acrylamido-4-methylphenyl)-2-(4-(4-methylpiperazin-1-yl)phenyl)-1H-pyrrolo[2,3-b]pyridin-5-yl)acetate 2,2,2-trifluoroacetate] | 1000 to 100000 | 100 to 500 | 100 to 500 | ≤ 100 | ≤ 100 | ≤ 100 | 100 to 500 |
| C=CC(=O)Nc1cc(-c2c(-c3ccnc(N4CCOCC4)c3)[nH]c3ncc(C(=O)OC(C)C)cc23)ccc1C [Example 166, isopropyl 3-(3-acrylamido-4-methylphenyl)-2-(2-morpholinopyridin-4-yl)-1H-pyrrolo[2,3-b]pyridine-5-carboxylate] | 1000 to 100000 | 1000 to 100000 | 1000 to 10000 | 500 to 1000 | ≤ 100 | 100 to 500 | 1000 to 10000 |
| C=CC(=O)N1CCOc2ccc(-c3c(-c4ccc(CN(C)C)cc4)[nH]c4nccc(Cl)c34)cc21 [Example 102, 1-(6-(4-chloro-2-(4-((dimethylamino)methyl)phenyl)-1H-pyrrolo[2,3-b]pyridin-3-yl)-2H-benzo[b][1,4]oxazin-4(3H)-yl)prop-2-en-1-one] | 1000 to 100000 | 100 to 500 | 100 to 500 | ≤ 100 | ≤ 100 | ≤ 100 | 100 to 500 |
| C=CC(=O)Nc1cc(-c2c(-c3ccc(N4CCN(C)CC4)cc3)[nH]c3ncc(C(=O)NCc4cccc(S(N)(=O)=O)c4)cc23)ccc1C [Example 126, 3-(3-acrylamido-4-methylphenyl)-2-(4-(4-methylpiperazin-1-yl)phenyl)-N-(3-sulfamoylbenzyl)-1H-pyrrolo[2,3-b]pyridine-5-carboxamide] | > 10000 | > 10000 | > 10000 | 100 to 500 | ≤ 100 | ≤ 100 | > 10000 |
| C=CC(=O)Nc1cc(-c2c(-c3ccc(N4CCN(C)CC4)cc3)[nH]c3ncc(C(=O)NCc4ccccc4)cc23)ccc1C [Example 118, 3-(3-acrylamido-4-methylphenyl)-N-benzyl-2-(4-(4-methylpiperazin-1-yl)phenyl)-1H-pyrrolo[2,3-b]pyridine-5-carboxamide 2,2,2-trifluoroacetate] | 500 to 1000 | 500 to 1000 | 100 to 500 | ≤ 100 | ≤ 100 | ≤ 100 | 100 to 500 |
| C=CC(=O)Nc1cc(-c2c(-c3ccc(N4CCN(C)CC4)cc3)[nH]c3ncc(C(=O)NCc4nncn4C)cc23)ccc1C [Example 130, 3-(3-acrylamido-4-methylphenyl)-N-((4-methyl-4H-1,2,4-triazol-3-yl)methyl)-2-(4-(4-methylpiperazin-1-yl)phenyl)-1H-pyrrolo[2,3-b]pyridine-5-carboxamide] | > 10000 | > 10000 | > 10000 | 100 to 500 | ≤ 100 | 100 to 500 | > 10000 |
| C=CC(=O)N1CCCc2ccc(-c3c(-c4ccc(C5CCN(C)CC5)cc4)[nH]c4nccc(Cl)c34)cc21 [Example 87, 1-(7-(4-chloro-2-(4-(1-methylpiperidin-4-yl)phenyl)-1H-pyrrolo[2,3-b]pyridin-3-yl)-3,4-dihydroquinolin-1(2H)-yl)prop-2-en-1-one] | 1000 to 100000 | 100 to 500 | 500 to 1000 | ≤ 100 | ≤ 100 | ≤ 100 | 500 to 1000 |
| C=CC(=O)Nc1cc(-c2c(-c3ccc(N4CCN(C)CC4)cc3)[nH]c3ncc(C(=O)NCCc4ccncc4)cc23)ccc1C [Example 123, 3-(3-acrylamido-4-methylphenyl)-2-(4-(4-methylpiperazin-1-yl)phenyl)-N-(2-(pyridin-4-yl)ethyl)-1H-pyrrolo[2,3-b]pyridine-5-carboxamide] | 1000 to 100000 | > 10000 | 1000 to 10000 | 500 to 1000 | ≤ 100 | ≤ 100 | 1000 to 10000 |
| C=CC(=O)Nc1cc(-c2c(-c3ccc(N4CCN(C)CC4)cc3)[nH]c3ncc(C(=O)NCc4ccncc4)cc23)ccc1C [Example 127, 3-(3-acrylamido-4-methylphenyl)-2-(4-(4-methylpiperazin-1-yl)phenyl)-N-(pyridin-4-ylmethyl)-1H-pyrrolo[2,3-b]pyridine-5-carboxamide] | 1000 to 100000 | 1000 to 100000 | 1000 to 10000 | ≤ 100 | ≤ 100 | ≤ 100 | 1000 to 10000 |
